“And” between values parts separate entries of the source, which are not always exact repeats. Equal values may be shown once.
What follows are molecules tested against T1, NS3 (Hepatitis C virus, UniProt A3EZJ3) (assay: Inhibitory concentration against hepatitis C virus (HCV) NS3 protease).
Parameters: species or system Hepacivirus hominis

T1 sequence (A3EZJ3 whole entry): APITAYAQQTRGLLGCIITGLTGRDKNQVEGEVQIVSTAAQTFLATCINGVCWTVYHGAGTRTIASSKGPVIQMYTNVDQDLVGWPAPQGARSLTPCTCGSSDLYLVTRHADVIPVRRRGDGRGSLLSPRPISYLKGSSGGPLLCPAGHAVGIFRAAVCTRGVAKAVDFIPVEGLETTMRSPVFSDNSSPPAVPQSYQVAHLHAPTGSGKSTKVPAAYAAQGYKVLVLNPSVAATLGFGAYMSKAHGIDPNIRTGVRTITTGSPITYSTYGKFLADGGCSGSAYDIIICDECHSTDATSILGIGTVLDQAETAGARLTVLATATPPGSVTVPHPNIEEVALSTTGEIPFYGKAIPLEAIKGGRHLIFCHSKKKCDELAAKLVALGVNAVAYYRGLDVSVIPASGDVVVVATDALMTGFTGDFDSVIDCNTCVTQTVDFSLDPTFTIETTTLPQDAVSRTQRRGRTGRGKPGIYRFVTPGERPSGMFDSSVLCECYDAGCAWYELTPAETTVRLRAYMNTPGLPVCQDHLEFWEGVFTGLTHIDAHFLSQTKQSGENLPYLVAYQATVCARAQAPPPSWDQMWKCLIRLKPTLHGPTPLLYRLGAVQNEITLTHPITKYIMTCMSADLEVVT

SMILES	IC50
COc1ccc2c(O[C@@H]3C[C@@H](C(=O)NC(CC(F)F)C(=O)NCCc4c(F)cc(C(=O)O)cc4F)N(C(=O)[C@@H](NC(=O)OC(C)(C)C)C(C)(C)C)C3)cc(-c3ccccc3)nc2c1 (stereo not given in full)	54 nM
COc1ccc2c(O[C@@H]3C[C@@H](C(=O)NC(CC(F)F)C(=O)NCCc4ccc(C(=O)O)cc4)N(C(=O)[C@@H](O)C(C)C)C3)cc(-c3ccccc3)nc2c1 (stereo not given in full)	11000 nM
COc1ccc2c(O[C@@H]3C[C@@H](C(=O)NC(CC(F)F)C(=O)NCCc4c(F)cc(C(=O)O)cc4F)N(C(C)=O)C3)cc(-c3ccccc3)nc2c1 (stereo not given in full)	38000 nM
C=CC1C[C@]1(NC(=O)C1C[C@@H](Oc2ccnc3ccccc23)CN1C(=O)[C@@H](NC(=O)OC(C)(C)C)C(C)(C)C)C(=O)O (stereo not given in full)	330 nM and < 500 nM
COc1ccc2c(O[C@@H]3C[C@@H](C(=O)NC(CC(F)F)C(=O)NCCc4ccc(C(=O)O)cc4)N(C(=O)[C@@H](NC(=O)OCC(C)C)C(C)C)C3)cc(-c3ccccc3)nc2c1 (stereo not given in full)	400 nM
C=CC1C[C@]1(NC(=O)C1C[C@@H](Oc2cc(-c3ccccc3)nc3cc(OC)ccc23)CN1C(=O)[C@@H](NC(=O)OC(C)(C)C)C(C)(C)C)C(=O)O (stereo not given in full)	25 nM
COc1ccc2c(O[C@@H]3CC(C(=O)NC(CC(F)F)C(=O)O)N(C(=O)[C@@H](NC(=O)OC(C)(C)C)C(C)(C)C)C3)cc(-c3ccccc3)nc2c1 (stereo not given in full)	180 nM

These molecules were tested against T1, NS3 (assay: Inhibitory concentration against hepatitis C virus (HCV) NS3 protease; Not active).
Parameters: species or system Hepacivirus hominis

SMILES	IC50
C=CC1CC1(NC(=O)C1C[C@@H](Oc2ccnc3ccccc23)CN1C(=O)[C@@H](NC(=O)OC(C)(C)C)C(C)(C)C)C(=O)NCCc1ccc(C(=O)O)cc1 (stereo not given in full)	Not Active
C=CC1C[C@@]1(NC(=O)C1C[C@@H](Oc2ccnc3ccccc23)CN1C(=O)[C@@H](NC(=O)OC(C)(C)C)C(C)(C)C)C(=O)O (stereo not given in full)	Not Active

These molecules were tested against T1, NS3 (assay: Inhibitory concentration against hepatitis C virus (HCV) NS3 protease; Not active at >> 100 uM).
Parameters: species or system Hepacivirus hominis

SMILES	IC50
COc1ccc2c(O[C@@H]3C[C@@H](C(=O)NC(CC(F)F)C(=O)NCCc4ccc(C(=O)O)cc4)N(C(=O)C(C)(C)C)C3)cc(-c3ccccc3)nc2c1 (stereo not given in full)	Not Active

— ChEMBL document CHEMBL1136161, “Novel, potent phenethylamide inhibitors of the hepatitis C virus (HCV) NS3 protease: probing the role of P2 aryloxyprolines with hybrid structures” (Bioorg Med Chem Lett, 2003)
